This is an account of results in US9828592B2, “Chemically modified sophorolipids and uses thereof” (Sophoro Biotechnologies, LLC, priority 2011, dated 2017).

The test system of test [1] is Trichoderma reesei (Rut-C30). Briefly: Cellulase induction studies in Trichoderma reesei culture, CMC endo-glucanase activity assay. In kind it is cell-based. Conditions: for CMC (U/mL) at day 5: Example 4, inducer at 2% as carbon source, no glucose. As for the experimental part:
Trichoderma reesei (Rut-C30) was selected as the host for cellulase expression in this Example. To prepare for the cellulase induction studies, a citrate minimal media was first prepared. The media composition described by England et al. in U.S. 2010/0009408 was modified to include 14.4 g/L citric acid, 4 g/L KH2PO4, 6.35 g/L (NH4)2SO4, 2 g/L MgSO4-7H2O, 0.53 g/L CaCl2-2H2O, and trace metal elements at 1 mL/L, which included 5 g/L FeSO4-7H2O, 1.6 g/L MnSO4—H2O, and 1.4 g/L ZnSO4-7H2O. The final pH was adjusted to 5.50 using NaOH.
The Trichoderma reesei (ATCC56765) was used in this Example. This fungal strain was developed as a catabolic de-repressed strain from classic mutagenesis of parent strain NG14 and the wild type QM6A. See Seidl et al., BMC Genomics, 9:327 (2008). To propagate Trichoderma, the freeze-dried stock from ATCC was first dissolved in sterile deionized water, and then transferred onto a potato dextrose agar (PDA) plate (Teknova P0047) using a sterile loop. The PDA plate was maintained at room temperature under white fluorescent light. After approximately seven days, green Trichoderma spores were observed. In addition, 60% (w/v) glucose, 15% (w/v) lactose, and 15% (w/v) cellobiose stocks were prepared and used both as controls and as the carbon source for Trichoderma growth.
To initiate cellulase induction studies for each of the sophorolipid mixtures prepared in Examples 1-3 above, 0.5 mL of glucose stock was first placed into 14 mL of citrate minimal media inside a 125 mL baffled flask. […]
To commence the fermentation, an approximately 1 cm×1 cm square agar plug was removed from the Trichoderma spore-containing PDA agar plate using a sterile loop and placed into the cellulase induction culture media. […] At five days of fermentation, the samples were collected and analyzed for carboxymethylcellulose (CMC) endo-glucanase activity. […] It should be understood that one CMC unit denotes the activity that liberates 1 μmol of reducing sugars (expressed as glucose equivalents) in one minute under the specified conditions of 50° C. and pH 4.8.

Test [2] concerns Trichoderma reesei (Rut-C30). Described as above. The test is classed as cell-based. To be noted: for Cellulase activity U/mL at day 3 / Cellulase activity U/mg at day 3: 2% glucose.
Another test relates to Trichoderma viride. To be noted: Mandels et al. 1962; cited from earlier work.
Where [3] appears, read: Example 8, 1.0 g/L (15 mg/15 mL, 2.92 mM).
[4] abbreviates: Example 9, 1.0 g/L (15 mg/15 mL, 2.92 mM).
The mark [5] stands for this setting: Example 8, 0.13 g/L (2.0 mg/15 mL, 0.38 mM).
The mark [6] stands for this setting: Example 8, 1.3 g/L (20 mg/15 mL, 3.90 mM).
The mark [7] stands for this setting: Example 9, 0.13 g/L (2.0 mg/15 mL, 0.38 mM).
[8] abbreviates: Example 9, 1.3 g/L (20 mg/15 mL, 3.90 mM).

As to `O=C[C@H](O)[C@@H](O)[C@H](O[C@@H]1O[C@H](CO)[C@@H](O)[C@H](O)[C@H]1O)[C@H](O)CO` [cellobiose], the “cellulase activity compared to the glucose control” value in test [1] (Example 4, day 5, in words) is “marginal cellulase activity”. The “CMC (U/mL) at day 5” value in test [1] is on record as 2.05 U/mL. For the same molecule, in test [2] (setting [3]), the “Cellulase activity U/mL at day 3” value is recorded as 0.34 U/mL and the “Cellulase activity U/mg at day 3” value is 0.34 U/mg. Further, in test [2] (setting [4]), the “Cellulase activity U/mL at day 3” value came to 0.34 U/mL and the “Cellulase activity U/mg at day 3” value stood at 0.34 U/mg.
For `OC[C@H]1O[C@@H](O[C@H]2[C@H](O)[C@@H](O)C(O)O[C@@H]2CO)[C@H](O)[C@@H](O)[C@H]1O` (stereo partly drawn) [lactose], the “CMC (U/mL) at day 5” value in test [1] stood at 10.1 U/mL; in test [2] (Example 5, inducer at 2%, no glucose), 8.29 U/mL. Moreover, the “Cellulase activity U/mL at day 3” value in test [2] (setting [3]) and in test [2] (setting [4]) was 0.64 U/mL in each case. The “Cellulase activity U/mg at day 3” value in test [2] (setting [3]) and in test [2] (setting [4]) was 0.64 U/mg in each case.
With `OC[C@H]1O[C@@H](O[C@@H]2[C@@H](O)[C@H](O)[C@@H](CO)O[C@@H]2O)[C@H](O)[C@@H](O)[C@@H]1O` [sophorose, 2-O-beta-D-glucopyranosyl-alpha-D-glucose], the “increase in cellulase production compared to cellobiose” value in the test with Trichoderma viride was “about 2500 times”. Further, the “Cellulase activity U/mL at day 3” value was 3.58 U/mL in test [2] (setting [5]), 15.0 U/mL in test [2] (setting [6]), 3.58 U/mL in test [2] (setting [7]) and 15.0 U/mL in test [2] (setting [8]). In addition, the “Cellulase activity U/mg at day 3” value in test [2] (setting [5]) was 26.9 U/mg; in test [2] (setting [6]) it was 11.2 U/mg; in test [2] (setting [7]), 26.9 U/mg; in test [2] (setting [8]), 11.2 U/mg.
